Measured values from patent publication US20170136140A1, “Antimicrobial Compositions Utilizing Silver and Oxygen, Process for Making, and Method of Using the Same” (Avent, Inc., priority 2014, published 2017).
Like-named read-outs stand apart in the source and are kept apart here.

Tests used:
[1] = system: Methicillin-resistant Staphylococcus aureus—MRSA (Clinical isolate); experiment: Antimicrobial challenge test (time-kill) in 95% TSB, concentrated media and silver; type: cell-based; details: throughout the duration of the testing (3 and 6 hours), 100% oxygen headspace, no silver
Procedure: In the first sample, 10 ml of 95% tryptic soy broth (TSB) was inoculated with approximately 10^5 CFU of Methicillin-resistant Staphylococcus aureus—MRSA (Clinical isolate). […] Each test sample was then incubated at 37° C.; the level of surviving organisms was tested after 3 hours and 6 hours for each.
The challenge organism (MRSA Clinical isolate) was prepared by culturing in Soybean-Casein digest broth (TSB) at 35° C. for 18 to 24 hrs to an approximate concentration of 1.8×10^9 CFU per ml. • 2. For the challenge tests: 0.01 ml of the stock culture was added into a 50 ml screw top test tube and then diluted to 10 ml with 95% TSB broth to a final concentration of 1.8×10^6 CFU/ml. • 3. […] Silver Challenge test: To a test tube prepared as described from step 2; 100 μl of 30% wt/wt AgNO3 was added and vortexed to mix for a final concentration of 0.3% AgNO3. • b. Silver+O2 challenge test: To a test tube prepared as described from step 2; 100 μl of 30% wt/wt AgNO3 solution was added and vortexed to mix for a final concentration of 0.3% AgNO3. […] The samples were then incubated at 37° C. for both 3 and 6 hours. • d. At the 3 and 6 hour time point the samples were plated at different dilutions (10^−1, 10^−3, and 10^−5) to enumerate the surviving colonies. • i. The 3 hour samples was re-purged with 02 gas and returned to the incubating oven for an additional 3 hours. • ii. […]

human fibroblasts = details: cited from earlier work
[2] = system: Pseudomonas aeruginosa (ATCC 9027); type: cell-based; details: 37° C., 0.03 ppm silver (from silver nitrate), 5% TSB, based on time zero plate count
Procedure: Each test sample was then incubated at 37° C.; the level of surviving organisms was tested after 3 hours and 6 hours for each.
The challenge organism (Pseudomonas aeruginosa ATCC 9027) was prepared by culturing in Soybean-Casein digest broth (TSB) at 35° C. for 18 to 24 hrs to an approximate concentration of 1.8×10^8 CFU per ml. • 2. For the challenge tests: 0.01 ml of the stock culture was added into a 50 ml screw top test tube and then diluted to 10 ml with 5% TSB broth to a final concentration of 1.8×10^5 CFU/ml. • 3. […] Silver Challenge test: To a test tube prepared as described from step 2; 100 μl of 3 ppm AgNO3 was added and vortexed to mix for a final concentration of 0.03 ppm AgNO3. • b. Silver+O2 challenge test: To a test tube prepared as described from step 2; 100 μl of 3 ppm Ag+ (from AgNO3) solution was added and vortexed to mix for a final concentration of 0.03 ppm AgNO3. […] The samples were then incubated at 37° C. for both 3 and 6 hours. • d. At the 3 and 6 hour time point the samples were plated at different dilutions (10^−1, 10^−3, and 10^−5) to enumerate the surviving colonies. • i. The 3 hour samples were re-purged with 02 gas and returned to the incubating oven for an additional 3 hours. • ii. The media used for plating was Trypticase soy agar (TSA). • e. The plates were incubated for 2 to 3 days before counting. • f. […]

In the case of `O=O` [Sample 4, oxygen gas], the “change in the amount of colony forming units” value [1] is reported as “increase”.
For `[Ag+]` [Ionic silver], the “concentration cytotoxic to human fibroblasts” value (human fibroblasts) is listed as 1 parts per million.
For silver nitrate [Sample 1], the “log reduction in the number of CFU” value ([2]; after 3 hours) was 2 log and the “log reduction in the number of CFU” value ([2]; after 6 hours) was 3 log.
